In brackets after ≈: the same amount, converted by molar mass. Activity calls are given as the source filed them. No cut-off for these calls is given here.
Legend:
[1] = system: Salmonella typhi; assay: Antimicrobial activity against Salmonella typhi; type: functional, Salmonella enterica subsp. enterica serovar Typhi; conditions: Salmonella enterica
[2] = system: Proteus vulgaris; assay: Antimicrobial activity against Proteus vulgaris; type: functional
[3] = system: Staphylococcus aureus; assay: Antimicrobial activity against Staphylococcus aureus; type: functional
[4] = system: Pseudomonas aeruginosa; assay: Antimicrobial activity against Pseudomonas aeruginosa; type: functional
[5] = system: Proteus mirabilis; assay: Antimicrobial activity against Proteus mirabilis; type: functional
[6] = system: Staphylococcus aureus

Which results are given for `CCn1c2ccc3cc2c2cc(ccc21)C(=O)c1ccc(cc1)Cn1c[n+](c2ccccc21)Cc1ccc(cc1)-c1cccc(c1)-c1ccc(cc1)C[n+]1cn(c2ccccc21)Cc1ccc(cc1)C3=O.[Br-].[Br-]`?
MIC [1]: 45 µg/mL; MIC [2]: 50 µg/mL; MIC [3]: 45 µg/mL; MIC [4]: 65 µg/mL; MIC [5]: 50 µg/mL

Which results are given for `CCn1c2ccc3cc2c2cc(ccc21)C(=O)c1ccc(cc1)Cn1cc[n+](c1)Cc1ccc(cc1)-c1cccc(c1C(=O)O)-c1ccc(cc1)C[n+]1ccn(c1)Cc1ccc(cc1)C3=O.[Br-].[Br-]`?
MIC [1]: 35 µg/mL; MIC [2]: 65 µg/mL; MIC [3]: 35 µg/mL; MIC [4]: 80 µg/mL; MIC [5]: 50 µg/mL

How did the MIC [1] turn out when `CCn1c2ccc3cc2c2cc(ccc21)C(=O)c1ccc(cc1)Cn1c[n+](c2ccccc21)Cc1cc([N+](=O)[O-])cc(c1O)C[n+]1cn(c2ccccc21)Cc1ccc(cc1)C3=O.[Br-].[Br-]` was run?
The MIC was 15 µg/mL.

What about the MIC [2] of the same molecule?
The MIC was 35 µg/mL.

What about the MIC [3] of the same molecule?
Its MIC is 20 µg/mL.

What about the MIC [4] of the same molecule?
Its MIC is 30 µg/mL.

And the MIC [5]?
The MIC was 30 µg/mL.

With `CCn1c2ccc3cc2c2cc(ccc21)C(=O)c1ccc(cc1)Cn1c[n+](c2ccccc21)Cc1cccc(n1)C[n+]1cn(c2ccccc21)Cc1ccc(cc1)C3=O.[Br-].[Br-]` as the molecule, how does the MIC [1] read?
The MIC was 15 µg/mL.

And the MIC [2]?
The MIC was 15 µg/mL.

And the MIC [3]?
The MIC was 8 µg/mL.

What about the MIC [4] of the same molecule?
The MIC was 20 µg/mL.

And the MIC [5]?
Its MIC is 10 µg/mL.

Which results are given for `CCn1c2ccc3cc2c2cc(ccc21)C(=O)c1ccc(cc1)Cn1c[n+](c2ccccc21)Cc1ccc(cc1)-c1cccc(c1C(=O)O)-c1ccc(cc1)C[n+]1cn(c2ccccc21)Cc1ccc(cc1)C3=O.[Br-].[Br-]`?
MIC [1]: 50 µg/mL; MIC [2]: 60 µg/mL; MIC [4]: 70 µg/mL; MIC [6]: inactive; MIC [5]: 55 µg/mL

Which MIC [1] does the source give for `CCn1c2ccc3cc2c2cc(ccc21)C(=O)c1ccc(cc1)Cn1c[n+](c2ccccc21)Cc1cc(OC)c(cc1OC)C[n+]1cn(c2ccccc21)Cc1ccc(cc1)C3=O.[Br-].[Br-]` here?
Its MIC is 40 µg/mL.

What about the MIC [2] of the same molecule?
Its MIC is 45 µg/mL.

What about the MIC [4] of the same molecule?
The MIC was 70 µg/mL.

What about the MIC [5] of the same molecule?
Its MIC is 55 µg/mL.

Which MIC [1] does the source give for `CCn1c2ccc3cc2c2cc(ccc21)C(=O)c1ccc(cc1)Cn1cc[n+](c1)Cc1ccc(cc1)-c1cccc(c1)-c1ccc(cc1)C[n+]1ccn(c1)Cc1ccc(cc1)C3=O.[Br-].[Br-]` here?
The MIC was 55 µg/mL.

And the MIC [2]?
Its MIC is 70 µg/mL.

And the MIC [3]?
Its MIC is 75 µg/mL.

What about the MIC [4] of the same molecule?
The MIC was 75 µg/mL.

What about the MIC [5] of the same molecule?
The MIC was 75 µg/mL.

What does the source list for `CCn1c2ccc3cc2c2cc(ccc21)C(=O)c1ccc(cc1)Cn1cc[n+](c1)Cc1cccc(n1)C[n+]1ccn(c1)Cc1ccc(cc1)C3=O.[Br-].[Br-]`?
MIC [1]: 15 µg/mL; MIC [2]: 25 µg/mL; MIC [3]: 12 µg/mL; MIC [4]: 30 µg/mL; MIC [5]: 20 µg/mL

Which results are given for `CCn1c2ccc3cc2c2cc(ccc21)C(=O)c1ccc(cc1)Cn1cc[n+](c1)Cc1ccc(cc1)C(=O)c1ccc2c(c1)c1cc(ccc1n2CC)C(=O)c1ccc(cc1)C[n+]1ccn(c1)Cc1ccc(cc1)C3=O.[Br-].[Br-]`?
MIC [1]: 25 µg/mL; MIC [2]: 40 µg/mL; MIC [3]: 25 µg/mL; MIC [4]: 55 µg/mL; MIC [5]: 35 µg/mL

How did the MIC [1] turn out when `CN(C)[C@@H]1C(O)=C(C(N)=O)C(=O)[C@@]2(O)C(O)=C3C(=O)c4c(O)cccc4[C@@](C)(O)[C@H]3C[C@@H]12` [TETRACYCLINE] was run?
Its MIC is 15 µg/mL (≈ 33.8 µM).

And the MIC [2]?
Its MIC is 35 µg/mL (≈ 78.8 µM).

And the MIC [3]?
The MIC was 20 µg/mL (≈ 45 µM).

What about the MIC [4] of the same molecule?
Its MIC is 35 µg/mL (≈ 78.8 µM).

And the MIC [5]?
The MIC was 20 µg/mL (≈ 45 µM).

Which results are given for `CCn1c2ccc3cc2c2cc(ccc21)C(=O)c1ccc(cc1)Cn1c[n+](c2ccccc21)Cc1ccc(cc1)C(=O)c1ccc2c(c1)c1cc(ccc1n2CC)C(=O)c1ccc(cc1)C[n+]1cn(c2ccccc21)Cc1ccc(cc1)C3=O.[Br-].[Br-]`?
MIC [1]: 25 µg/mL; MIC [2]: 30 µg/mL; MIC [3]: 26 µg/mL; MIC [4]: 35 µg/mL; MIC [5]: 30 µg/mL

For `CCn1c2ccc3cc2c2cc(ccc21)C(=O)c1ccc(cc1)Cn1cc[n+](c1)Cc1cc([N+](=O)[O-])cc(c1O)C[n+]1ccn(c1)Cc1ccc(cc1)C3=O.[Br-].[Br-]`, which MIC [1] is on record?
The MIC was 20 µg/mL.

And the MIC [2]?
The MIC was 30 µg/mL.

And the MIC [3]?
Its MIC is 20 µg/mL.

What about the MIC [4] of the same molecule?
The MIC was 35 µg/mL.

What about the MIC [5] of the same molecule?
The MIC was 20 µg/mL.
